Reference: PubChem BioAssay (NCI)
Several values for one entry are separate records, joined by “and”; a condition that tells them apart may be missing. Equal values may be shown once.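 Protocol summary: plate cells (96-well), add compound at 5 concentrations, incubate 48 h, interpolate endpoints linearly. Here, GI50 denotes the concentration required for 50% inhibition of growth. TGI is the concentration that stops growth completely.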

Columns and labels:
Experiment in all cases: NCI tumour cell line growth inhibition, 48 h
[1] = tested on: UO-31 renal
[2] = tested on: KM12 colon
[3] = tested on: CCRF-CEM leukemia
[4] = tested on: SNB-19 CNS
[5] = tested on: HCT-116 colon
[6] = tested on: HOP-62 NSCLC
[7] = tested on: SF-295 CNS
[8] = tested on: NCI-H460 lung
[9] = tested on: PC-3 prostate
[10] = tested on: SK-OV-3 ovarian

## Cc1cc(=O)n2nc(CSc3nnc(Sc4cc(O)ccc4O)s3)sc2n1
[1]
  TGI: > 100 µM
[2]
  TGI: > 100 µM
[3]
  TGI: 48.6 µM
[4]
  TGI: > 100 µM
[5]
  TGI: 41.2 µM
[6]
  TGI: > 100 µM
[7]
  TGI: > 100 µM
[8]
  TGI: > 100 µM
[9]
  TGI: > 100 µM
[10]
  TGI: > 100 µM

## CC(=O)C(C(C)=O)[C@H]1OC(C)(C)O[C@H]1[C@H]1COC(C)(C)O1
[1]
  TGI: > 100 µM
[2]
  TGI: > 100 µM
[3]
  TGI: > 100 µM
[4]
  TGI: > 100 µM
[5]
  TGI: > 100 µM
[6]
  TGI: > 100 µM
[7]
  TGI: > 100 µM
[8]
  TGI: > 100 µM
[9]
  TGI: 68.9 µM
[10]
  TGI: > 100 µM

## COc1cccc(N=NN2CCCC2)c1
[1]
  TGI: > 100 µM
[2]
  TGI: > 100 µM
[3]
  TGI: > 100 µM
[4]
  TGI: > 100 µM
[5]
  TGI: > 100 µM
[6]
  TGI: > 100 µM
[7]
  TGI: > 100 µM
[8]
  TGI: > 100 µM
[9]
  TGI: > 100 µM
[10]
  TGI: > 100 µM

## CC(C)=CCCC1(C)C2COC(=O)C21 (stereo not given)
[1]
  TGI: > 100 µM
[2]
  GI50: > 100 µM and 42.1 µM
  TGI: > 100 µM
[3]
  GI50: 39.3 µM and 12.3 µM
  TGI: > 100 µM and 52.6 µM
[4]
  TGI: > 100 µM
[5]
  GI50: > 100 µM and 19.8 µM
  TGI: > 100 µM and 35.4 µM
[6]
  GI50: > 100 µM and 27.6 µM
  TGI: > 100 µM and 75.4 µM
[7]
  TGI: > 100 µM
[8]
  GI50: > 100 µM and 19.3 µM
  TGI: > 100 µM and 34.1 µM
[9]
  TGI: > 100 µM
[10]
  TGI: > 100 µM

## COC(=O)c1ccccc1C1CN=NC12Cc1c(C)ccc(C)c1C2=O (stereo not given)
[1]
  TGI: > 100 µM
[2]
  TGI: > 100 µM
[3]
  TGI: > 100 µM
[4]
  TGI: > 100 µM
[5]
  TGI: > 100 µM
[6]
  TGI: > 100 µM
[7]
  TGI: > 100 µM
[8]
  TGI: > 100 µM
[9]
  TGI: > 100 µM
[10]
  TGI: > 100 µM

## COC(=O)[C@@H]1COC(=O)N1
[1]
  TGI: > 100 µM
[2]
  TGI: > 100 µM
[3]
  TGI: > 100 µM
[4]
  TGI: > 100 µM
[5]
  TGI: > 100 µM
[6]
  TGI: > 100 µM
[7]
  TGI: > 100 µM
[8]
  TGI: > 100 µM
[9]
  TGI: > 100 µM
[10]
  TGI: > 100 µM

## COc1ccc(/C(CC2OC(=O)c3ccccc32)=N\NC(N)=O)cc1 (stereo not given)
[1]
  TGI: > 100 µM
[2]
  TGI: > 100 µM
[3]
  TGI: > 100 µM
[4]
  TGI: > 100 µM
[5]
  TGI: > 100 µM
[6]
  TGI: > 100 µM
[7]
  TGI: > 100 µM
[8]
  TGI: > 100 µM
[9]
  TGI: > 100 µM
[10]
  TGI: > 100 µM

## COc1cc(/C=C2/Oc3c(OC)cccc3C2=O)ccc1O
[1]
  TGI: > 100 µM
[2]
  TGI: > 100 µM
[3]
  TGI: > 100 µM
[4]
  TGI: > 100 µM
[5]
  TGI: > 100 µM
[6]
  TGI: > 100 µM
[7]
  TGI: > 100 µM
[8]
  TGI: > 100 µM
[9]
  TGI: > 100 µM
[10]
  TGI: > 100 µM

## Cc1ccc(NCCN(C)C)c2c(=O)c3cc(O)ccc3sc12
[1]
  TGI: 17.4 µM
[2]
  TGI: 11.4 µM
[3]
  TGI: 5.7 µM
[4]
  TGI: 16.1 µM
[5]
  TGI: 8.79 µM
[6]
  TGI: 6.21 µM
[7]
  TGI: 18.4 µM
[8]
  TGI: 5.72 µM
[9]
  TGI: 11.1 µM
[10]
  TGI: 9.84 µM

## Cc1cc(C)nc(NS(=O)(=O)c2ccc(Nc3c4ccccc4nc4ccc(C(=O)Nc5ccc(S(=O)(=O)N=C(N)N)cc5)cc34)cc2)n1
[1]
  TGI: > 100 µM
[2]
  TGI: > 100 µM
[3]
  TGI: > 100 µM
[4]
  TGI: > 100 µM
[5]
  TGI: > 100 µM
[6]
  TGI: > 100 µM
[7]
  TGI: > 100 µM
[8]
  TGI: > 100 µM
[9]
  TGI: > 100 µM
[10]
  TGI: > 100 µM

## CCCCCCCCCCCCC1N=C(N)N2CCCC2=C1C(=O)OC (stereo not given)
[1]
  TGI: 24.4 µM
[2]
  TGI: 3.94 µM
[3]
  TGI: 3.89 µM
[4]
  TGI: 3.41 µM
[5]
  TGI: 3.34 µM
[6]
  TGI: 9.95 µM
[7]
  TGI: 3.39 µM
[8]
  TGI: 3.23 µM
[9]
  TGI: 3.95 µM
[10]
  TGI: 23.8 µM

## N#CC(NNC(=O)c1ccccc1O)c1c(O)ccc2ccccc12 (stereo not given)
[1]
  TGI: 11.4 µM
[2]
  TGI: > 100 µM
[3]
  TGI: > 90.9 µM
[4]
  TGI: > 100 µM
[5]
  TGI: 14.8 µM
[6]
  TGI: 29.5 µM
[7]
  TGI: 50.5 µM
[8]
  TGI: 36.8 µM
[9]
  TGI: > 55.1 µM
[10]
  TGI: 40.7 µM

## NC(N)=NCCCC(NC(=O)c1c2ccccc2nc2ccccc12)C(=O)O (stereo not given)
[1]
  TGI: > 100 µM
[2]
  TGI: > 100 µM
[3]
  TGI: > 100 µM
[4]
  TGI: > 100 µM
[5]
  TGI: > 100 µM
[6]
  TGI: > 100 µM
[7]
  TGI: > 100 µM
[8]
  TGI: > 100 µM
[9]
  TGI: > 100 µM
[10]
  TGI: > 100 µM

## O=C1c2ccccc2C(=O)c2sc(Nc3cc(Cl)ccc3Cl)nc21
[1]
  TGI: 19.4 µM
[2]
  TGI: 26.5 µM
[3]
  TGI: > 100 µM
[4]
  TGI: 37.9 µM
[5]
  TGI: 13.7 µM
[6]
  TGI: 28.9 µM
[7]
  TGI: 17.4 µM
[8]
  TGI: 21.5 µM
[9]
  TGI: 18.5 µM
[10]
  TGI: 30.3 µM

## CCCCCCCCCCCCC1N=C(N)NC2(CCCO2)C1C(=O)OC (stereo not given)
[1]
  TGI: 32.2 µM
[2]
  TGI: 3.34 µM
[3]
  TGI: 5.83 µM
[4]
  TGI: 9.92 µM
[5]
  TGI: 7.32 µM
[6]
  TGI: 23.8 µM
[7]
  TGI: 24.7 µM
[8]
  TGI: 8.23 µM
[9]
  TGI: 8.57 µM
[10]
  TGI: 23.8 µM

## CC(C)=CCc1c2c(c(O)c3c(=O)c4c(oc13)-c1ccc(O)cc1OC4C=C(C)C)C=CC(C)(C)O2 (stereo not given)
[1]
  TGI: 33.7 µM
[2]
  TGI: 21.7 µM
[3]
  TGI: 15.5 µM
[4]
  TGI: 30.2 µM
[5]
  TGI: 21 µM
[6]
  TGI: 28.4 µM
[7]
  TGI: 28.6 µM
[8]
  TGI: 30.4 µM
[9]
  TGI: 24.7 µM
[10]
  TGI: 33.3 µM

## COC1OC(C(=O)O)C2OC(C)(C)OC12 (stereo not given)
[1]
  TGI: > 100 µM
[2]
  TGI: > 100 µM
[3]
  TGI: > 100 µM
[4]
  TGI: > 100 µM
[5]
  TGI: > 100 µM
[6]
  TGI: > 100 µM
[7]
  TGI: > 100 µM
[8]
  TGI: > 100 µM
[9]
  TGI: > 100 µM
[10]
  TGI: > 100 µM

## CC(NNC(=O)c1ccncc1)c1ccc(Cl)cc1Cl (stereo not given)
[1]
  TGI: > 100 µM
[2]
  TGI: > 100 µM
[3]
  TGI: > 100 µM
[4]
  TGI: > 100 µM
[5]
  TGI: > 100 µM
[6]
  TGI: > 100 µM
[7]
  TGI: > 100 µM
[8]
  TGI: > 100 µM
[9]
  TGI: > 100 µM
[10]
  TGI: > 100 µM
